Measurements from PMC11581978, “Paenilamicins are context-specific translocation inhibitors of protein synthesis” (Nature Chemical Biology, 2024).

Columns and labels:
[1] = test system: E. coli ribosomes translating MLIFstop-mRNA; assay: Toeprinting assay on MLIFstop-mRNA; type: biochemical; conditions: 0.5-100 µM, toeprinting in duplicate, 30 min at 37 °C
Excerpt: To investigate how paenilamicins inhibit translation, we generated PamB2-stalled ribosome complexes (PamB2-SRC) for single-particle cryo-EM analysis. Rather than forming complexes on vacant ribosomes, or with predefined functional states, we instead aimed to use more physiological complexes where translating ribosomes become stalled by PamB2. To achieve this, we performed in vitro translation reactions with E. coli ribosomes using the Met-Leu-Ile-Phe-stop-mRNA (MLIFstop-mRNA), a model template that we had previously used to successfully determine structures of drosocin-stalled ribosomal complexes. Toeprinting was used to monitor the position of ribosomes on the MLIFstop-mRNA in the presence of increasing concentrations of synthetic PamB2 (Extended Data Fig. 2). […] (Extended Data Fig. 2). […] (Extended Data Fig. 2).
Toeprinting reactions for Fig. 4b and Extended Data Fig. 2 were performed as described previously. Briefly, reactions were performed with 6 μl of PURExpress in vitro protein synthesis system (New England Biolabs). The reactions were carried out with different primers and templates (Supplementary Tables 2 and 3). The reactions contained 340 ng of the respective mRNA template and were supplemented with the different compounds as specified. The translation reactions were incubated for 30 min at 37 °C. […]

[2] = test system: EF-G-dependent translocation on the ribosome; assay: Translocation assay (toeprinting, MFKAFK template); type: biochemical; conditions: EF-G present; tRNAfMet in P-site, N-AcPhe-tRNAPhe in A-site; in duplicate
Method: Translocation assays were performed as previously described[22] using the MFKAFK template[45] (Supplementary Table 2). Reactions were prepared by incubating tight-coupled ribosomes (0.7 µM) with mRNA (0.5 µM) and tRNAi^Met (1 µM) for 20 min at 37 °C in the Pure System Buffer (5 mM potassium phosphate (pH 7.3), 9 mM Mg(OAc)2, 95 mM potassium glutamate, 5 mM NH4Cl, 0.5 mM CaCl2, 1 mM spermidine, 8 mM putrescine and 1 mM dithiothreitol) and for additional 10 min at 37 °C with 2 μM of N-acetyl-Phe-tRNA^Phe. At the time of N-acetyl-Phe-tRNA^Phe addition, the reactions were supplemented with PamB2 or negamycin as specified. The translocation reaction was initiated by addition of 1 µl of EF-G–GTP mixture (1.2 µM and 3.2 mM). After 5 min of incubation at 30 °C, 2 µl of reverse transcriptase and/or dNTPs mixture was added. The reactions were stopped after another 5 min at 30 °C by addition of 200 µl of the stop buffer and subsequent phenol extraction. The obtained complementary DNA was precipitated in ethanol for subsequent gel electrophoresis.

[3] = test system: ribosomes translating ErmBL mRNA; assay: Toeprinting on ErmBL mRNA templates (Figs. 4a and 5c); type: biochemical, E. coli; conditions: 100 µM
Method: Toeprinting reactions for Figs. 4a and 5c were performed as described previously. Briefly, reactions were performed with 5 μl of PURExpress in vitro protein synthesis system. The reactions contained 0.1 pmol of the respective DNA template (Supplementary Table 2) and were supplemented with retapamulin, erythromycin, mupirocin or PamB2 as specified. The transcription–translation reactions were incubated 20 min at 37 °C. Subsequently, reverse transcription was performed for 10 min at 37 °C using AMV RT and the radiolabeled NV*1-primer. Reactions were stopped by the addition of 1 µl of 10 M NaOH and then neutralized with 0.8 µl of concentrated HCl. Subsequently, 200 µl of the stop buffer (0.3 M sodium acetate (pH 5.5), 5 mM EDTA and 0.5% SDS) was added and phenol extraction was performed. The obtained complementary DNA was precipitated in ethanol for subsequent gel electrophoresis.

[4] = test system: ribosomes translating ErmBL mRNA; assay: Toeprinting on ErmBL mRNA with mutated second codon (Fig. 4b); type: biochemical, E. coli; conditions: 50 µM, in duplicate
Method: Toeprinting reactions for Fig. 4b and Extended Data Fig. 2 were performed as described previously. Briefly, reactions were performed with 6 μl of PURExpress in vitro protein synthesis system (New England Biolabs). The reactions were carried out with different primers and templates (Supplementary Tables 2 and 3). The reactions contained 340 ng of the respective mRNA template and were supplemented with the different compounds as specified. The translation reactions were incubated for 30 min at 37 °C. The reverse transcription reaction was carried out using AMV RT and primer NV*1-Alexa 647 (5′-[…]-3′). The translation reactions were incubated with the reverse transcriptase and the primer for 20 min at 37 °C. mRNA degradation was carried out by the addition of 1 µl of 5 M NaOH. The reactions were neutralized with 0.7 µl of 25% HCl, and nucleotide removal was performed with the QIAquick Nucleotide Removal Kit (Qiagen). The samples were dried under vacuum for 2 h at 60 °C for subsequent gel electrophoresis. The 6% acrylamide gels were scanned on a Typhoon scanner (GE Healthcare).

[5] = test system: Escherichia coli in vitro translation; conditions: E. coli in vitro translation, cited from earlier work
Excerpt: The accordance of structural features of paenilamicins with the translation inhibitor edeine (Extended Data Fig. 1c) led to the hypothesis that paenilamicins may also exert their antimicrobial activity by binding to the ribosome and inhibiting protein synthesis. […] The best understood context-specific translation inhibitors are those that target the large subunit, where their inhibitory action is influenced by the sequence of the nascent polypeptide chain being synthesized, for example, macrolides and ketolides[30]–[32] ...

paenilamicin B2 [PamB2]
ribosome stalling on MLIFstop-mRNA [1]: gradual loss of ribosomes at the AUG codon and an increase in ribosomes stalled one codon further with the UUG (Leu) codon in the P-site
EF-G dependent translocation (toeprint shift) [2]: little to no shift in the toeprint band
inhibition when Phe-tRNA (ms2i6A37) decodes UUC in the A-site ([3]; ErmBL mRNA): no inhibition
inhibition when tRNALeu (ms2i6A37) decodes UUG in the A-site ([3]; ErmBL mRNA): not inhibited
translation through stretches of UUG codons ([3]; ErmBL mRNA with 1–5 UUG repeats): ribosomes can translate through stretches of up to five UUG codons unhindered
ribosome stalling at serine codon UCA ([3]; ErmBL-(UUG)4 mRNA, seventh codon UCA, tRNASer with ms2i6A37): only weak stalling
ribosome stalling at serine codon UCC ([3]; ErmBL-(UUG)4 mRNA, seventh codon UCC, tRNASer lacking A37 modification): strong stalling
ribosome stalling at serine codon UCG ([3]; ErmBL-(UUG)4 mRNA, seventh codon UCG, tRNASer with ms2i6A37): only weak stalling
ribosome stalling at serine codon UCU ([3]; ErmBL-(UUG)4 mRNA, seventh codon UCU, tRNASer lacking A37 modification): strong stalling
ribosome stalling at subsequent sites, ErmBL mRNA ([3]; fourth UUC (Phe) in the P-site): a subset of ribosomes also become stalled
accumulation of ribosomes on AUG start codon, wildtype (1×UUG) ErmBL mRNA ([3]; mupirocin present, in duplicate): did not lead to a strong accumulation of ribosomes on the AUG start codon
ribosome stalling, wildtype (1×UUG) ErmBL mRNA ([3]; mupirocin present, second codon UUG in the P-site): ribosomes became stalled only once the second ermBL codon (UUG) moved into the P-site
ribosome stalling at subsequent sites, ErmBL mRNA ([3]; third GUA codon in the P-site): not the third GUA codon in the P-site
inhibition of first translocation, A-site codon AUG ([4]; ErmBL mRNA second codon AUG): clear toeprint bands
inhibition of first translocation, A-site codon CUG ([4]; ErmBL mRNA second codon CUG (tRNALeu, m1G37)): appeared to be stronger than with U, it was reproducibly weaker than with A and G
inhibition of first translocation, A-site codon GUG ([4]; ErmBL mRNA second codon GUG): appeared to be the strongest
inhibition of first translocation, A-site codon UUG ([4]; ErmBL mRNA second codon UUG): little to no inhibition of the first translocation event
inhibition of in vitro translation / protein synthesis (in words) [5]: potent inhibitor of protein synthesis
IC50 ([5]; read-out: half-inhibitory concentration (IC50)): 400 nM
